7 compounds from ChEMBL document CHEMBL4257221, “Peptides comprising non-natural amino acids and methods of making and using the same” (2016) can be followed below.

As usually defined, the EC50 is the concentration at which the effect is half-maximal.

Numbered stars: 1 amine (or outer) side, 2 acyl side, 3 side chain; on linkers, the order of the positions; unused ones are H or OH. Square brackets hold non-standard residues; d marks the D form. Peptide text beside a SMILES is read from it. ξ: configuration not given here. X1 = O=C([C@H]1CCC[C@@H]1N[*:1])[*:2]; X2 = O=C([C@H]1CNC[C@@H]1N[*:1])[*:2]; ξβ3hY = NC(CC(=O)O)Cc1ccc(O)cc1; β3hN = NC(=O)C[C@H](N)CC(=O)O; ξβ3hQ = NC(=O)CCC(N)CC(=O)O; ξβ3hD = NC(CC(=O)O)CC(=O)O; ξβ3hN = NC(=O)CC(N)CC(=O)O; ξβ3hL = CC(C)CC(N)CC(=O)O; ξβ3hK = NCCCCC(N)CC(=O)O; ξβ3hT = CC(O)C(N)CC(=O)O; ξβ3hV = CC(C)C(N)CC(=O)O; βAla = NCCC(=O)O Bounds are passed on as bounds.

Assay [1] has as its target T1, Vasoactive intestinal polypeptide receptor 2 (Homo sapiens, UniProt P41587).
T1 sequence (P41587 whole entry): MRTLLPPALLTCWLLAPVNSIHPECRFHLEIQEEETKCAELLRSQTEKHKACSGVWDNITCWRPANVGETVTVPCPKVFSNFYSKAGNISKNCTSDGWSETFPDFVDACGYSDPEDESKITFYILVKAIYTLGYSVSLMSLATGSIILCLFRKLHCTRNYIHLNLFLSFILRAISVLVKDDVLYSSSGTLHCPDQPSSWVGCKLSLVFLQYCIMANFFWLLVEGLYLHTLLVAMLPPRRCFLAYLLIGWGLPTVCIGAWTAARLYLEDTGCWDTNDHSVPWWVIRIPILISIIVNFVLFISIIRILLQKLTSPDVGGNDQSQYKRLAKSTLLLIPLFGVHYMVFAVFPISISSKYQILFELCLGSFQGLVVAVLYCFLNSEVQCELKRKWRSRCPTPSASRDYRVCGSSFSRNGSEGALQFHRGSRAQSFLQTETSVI
The experiment in a line: Agonist activity at human VIPR2 expressed in CHOK1 cells assessed as intracellular cAMP accumulation after 60 mins by PathHunter assay. The assay is classed as functional, cell-based. Background: Changes in cAMP serve as a functional read-out for many G protein-coupled receptors.

In assay [2] the target is T2, Vasoactive intestinal polypeptide receptor 1 (Homo sapiens, UniProt P32241).
T2 sequence (P32241 whole entry): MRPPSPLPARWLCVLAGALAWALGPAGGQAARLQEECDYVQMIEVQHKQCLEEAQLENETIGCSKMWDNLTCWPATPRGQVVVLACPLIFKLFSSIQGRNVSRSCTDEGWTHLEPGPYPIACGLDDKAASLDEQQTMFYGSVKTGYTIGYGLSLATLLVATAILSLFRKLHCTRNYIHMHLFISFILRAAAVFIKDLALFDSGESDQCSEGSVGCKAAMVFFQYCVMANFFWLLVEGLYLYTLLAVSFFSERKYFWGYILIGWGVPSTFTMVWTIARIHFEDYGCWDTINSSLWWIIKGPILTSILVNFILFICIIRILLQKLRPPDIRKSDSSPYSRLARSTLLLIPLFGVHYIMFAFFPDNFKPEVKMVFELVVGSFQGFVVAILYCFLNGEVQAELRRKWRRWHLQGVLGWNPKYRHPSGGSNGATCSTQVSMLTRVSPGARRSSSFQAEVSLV
The assay is described as follows: Agonist activity at human VIPR1 expressed in CHOK1 cells assessed as intracellular cAMP accumulation after 60 mins by PathHunter assay. The assay is classed as functional, cell-based.

Take `CC(=O)N[C@@H](Cc1cnc[nH]1)C(=O)N[C@H]1CCC[C@@H]1C(=O)N[C@@H](CC(=O)O)C(=O)N[C@@H](C)C(=O)NC(CC(=O)N[C@@H](Cc1ccccc1)C(=O)N[C@H](C(=O)N[C@@H](CCC(=O)O)C(=O)N[C@@H](CC(N)=O)CC(=O)N[C@@H](Cc1ccc(O)cc1)C(=O)N[C@H](C(=O)N[C@@H](CCCCN)C(=O)N[C@@H](CC(C)C)C(=O)N[C@@H](CCCNC(=N)N)C(=O)N[C@@H](CCCCN)C(=O)NC(CCC(N)=O)CC(=O)N[C@@H](CC(C)C)C(=O)N[C@@H](C)C(=O)N[C@@H](C)C(=O)N[C@H]1CNC[C@@H]1C(=O)N[C@@H](CCCCN)C(=O)N[C@@H](Cc1ccc(O)cc1)C(=O)N[C@H]1CCC[C@@H]1C(=O)N[C@@H](CC(N)=O)C(=O)N[C@@H](CC(=O)O)C(=O)N[C@@H](CC(C)C)C(=O)NC(CCCCN)CC(=O)N[C@@H](CCCCN)C(=O)NCC(=O)NCCC(=O)N[C@H](C(=O)O)[C@@H](C)O)[C@@H](C)O)[C@@H](C)O)C(C)C` (stereo partly drawn) (Ac-H[X1]DA[ξβ3hV]FTE[β3hN]YTKLRK[ξβ3hQ]LAA[X2]KY[X1]NDL[ξβ3hK]KG[βAla]T-OH): the EC50 in assay [1] is 3.52 nM; in assay [2], 1530 nM.

`CC(=O)N[C@@H](Cc1cnc[nH]1)C(=O)N[C@H]1CCC[C@@H]1C(=O)N[C@@H](CC(=O)O)C(=O)N[C@@H](C)C(=O)NC(CC(=O)N[C@@H](Cc1ccccc1)C(=O)N[C@H](C(=O)N[C@@H](CCC(=O)O)C(=O)N[C@@H](CC(N)=O)CC(=O)N[C@@H](Cc1ccc(O)cc1)C(=O)N[C@H](C(=O)N[C@@H](CCCCN)C(=O)N[C@@H](CC(C)C)C(=O)N[C@@H](CCCNC(=N)N)C(=O)NC(CCCCN)CC(=O)N[C@@H](CCC(N)=O)C(=O)N[C@@H](CC(C)C)C(=O)N[C@@H](C)C(=O)N[C@@H](C)C(=O)N[C@H]1CNC[C@@H]1C(=O)N[C@@H](CCCCN)C(=O)N[C@@H](Cc1ccc(O)cc1)C(=O)N[C@H]1CCC[C@@H]1C(=O)N[C@@H](CC(N)=O)C(=O)N[C@@H](CC(=O)O)C(=O)N[C@@H](CC(C)C)C(=O)NC(CCCCN)CC(=O)N[C@@H](CCCCN)C(=O)NCC(=O)NCCC(=O)N[C@H](C(=O)O)[C@@H](C)O)[C@@H](C)O)[C@@H](C)O)C(C)C` (stereo partly drawn) (Ac-H[X1]DA[ξβ3hV]FTE[β3hN]YTKLR[ξβ3hK]QLAA[X2]KY[X1]NDL[ξβ3hK]KG[βAla]T-OH): the EC50 in assay [1] was 1.27 nM; in assay [2], 293 nM.

As for `CC[C@H](C)[C@H](NC(=O)[C@H](C)NC(=O)[C@H](CC(N)=O)NC(=O)CC(CC(C)C)NC(=O)[C@H](Cc1ccc(O)cc1)NC(=O)[C@H](CCCCN)NC(=O)[C@H](CCCCN)NC(=O)CC(NC(=O)[C@H](C)NC(=O)[C@H](CC(C)C)NC(=O)[C@H](CCC(N)=O)NC(=O)CC(CCCCN)NC(=O)[C@H](CCCNC(=N)N)NC(=O)[C@H](CC(C)C)NC(=O)[C@H](CCCNC(=N)N)NC(=O)CC(NC(=O)[C@H](Cc1ccc(O)cc1)NC(=O)[C@H](CC(N)=O)NC(=O)[C@H](CC(=O)O)NC(=O)CC(NC(=O)[C@H](Cc1ccccc1)NC(=O)[C@@H](NC(=O)[C@H](C)NC(=O)CC(CC(=O)O)NC(=O)[C@H](CO)NC(=O)[C@@H](N)Cc1cnc[nH]1)C(C)C)C(C)O)C(C)O)C(C)C)C(=O)NC(CC(=O)N[C@@H](CC(N)=O)C(=O)O)CC(C)C` (stereo partly drawn) (H-HS[ξβ3hD]AVF[ξβ3hT]DNY[ξβ3hT]RLR[ξβ3hK]QLA[ξβ3hV]KKY[ξβ3hL]NAI[ξβ3hL]N-OH), the EC50 in assay [1] and in assay [2] was greater than 1000 nM throughout.

`CC[C@H](C)[C@H](NC(=O)[C@H](C)NC(=O)[C@H](CC(N)=O)NC(=O)CC(CC(C)C)NC(=O)[C@H](Cc1ccc(O)cc1)NC(=O)[C@H](CCCCN)NC(=O)[C@H](CCCCN)NC(=O)CC(NC(=O)[C@H](C)NC(=O)[C@H](CC(C)C)NC(=O)[C@H](CCC(N)=O)NC(=O)CC(CCCCN)NC(=O)[C@H](CCCNC(=N)N)NC(=O)[C@H](CC(C)C)NC(=O)[C@H](CCCNC(=N)N)NC(=O)CC(NC(=O)[C@H](Cc1ccc(O)cc1)NC(=O)[C@H](CC(N)=O)NC(=O)[C@H](CC(=O)O)NC(=O)[C@@H](NC(=O)[C@H](Cc1ccccc1)NC(=O)[C@@H](NC(=O)[C@H](C)NC(=O)[C@H](CC(=O)O)NC(=O)[C@H]1CCC[C@@H]1NC(=O)[C@@H](N)Cc1cnc[nH]1)C(C)C)[C@@H](C)O)C(C)O)C(C)C)C(=O)NC(CC(=O)N[C@@H](CC(N)=O)C(=O)O)CC(C)C` (stereo partly drawn) (H-H[X1]DAVFTDNY[ξβ3hT]RLR[ξβ3hK]QLA[ξβ3hV]KKY[ξβ3hL]NAI[ξβ3hL]N-OH): the EC50 was 4900 nM in assay [1] and 5.66 nM in assay [2].

Regarding `CC[C@H](C)[C@H](NC(=O)[C@H](C)NC(=O)[C@H](CC(N)=O)NC(=O)CC(CC(C)C)NC(=O)[C@H](Cc1ccc(O)cc1)NC(=O)[C@H](CCCCN)NC(=O)[C@H](CCCCN)NC(=O)CC(NC(=O)[C@H](C)NC(=O)[C@H](CC(C)C)NC(=O)[C@H](CCC(N)=O)NC(=O)CC(CCCCN)NC(=O)[C@H](CCCNC(=N)N)NC(=O)[C@H](CC(C)C)NC(=O)[C@H](CCCNC(=N)N)NC(=O)CC(NC(=O)[C@H](Cc1ccc(O)cc1)NC(=O)[C@H](CC(N)=O)NC(=O)[C@H](CC(=O)O)NC(=O)[C@@H](NC(=O)[C@H](Cc1ccccc1)NC(=O)[C@H]1CCC[C@@H]1NC(=O)[C@H](C)NC(=O)[C@H](CC(=O)O)NC(=O)[C@H]1CCC[C@@H]1NC(=O)[C@@H](N)Cc1cnc[nH]1)[C@@H](C)O)C(C)O)C(C)C)C(=O)NC(CC(=O)N[C@@H](CC(N)=O)C(=O)O)CC(C)C` (stereo partly drawn) (H-H[X1]DA[X1]FTDNY[ξβ3hT]RLR[ξβ3hK]QLA[ξβ3hV]KKY[ξβ3hL]NAI[ξβ3hL]N-OH), the EC50 turned out to be 79.6 nM in assay [1] and 0.358 nM in assay [2].

On to `CC(C)C[C@H](NC(=O)[C@H](CC(=O)O)NC(=O)[C@H](CC(N)=O)NC(=O)[C@H]1CCC[C@@H]1NC(=O)[C@H](Cc1ccc(O)cc1)NC(=O)[C@H](CCCCN)NC(=O)[C@H]1CNC[C@@H]1NC(=O)[C@H](C)NC(=O)[C@H](C)NC(=O)[C@H](CC(C)C)NC(=O)[C@H](CCC(N)=O)NC(=O)[C@H](CCCCN)NC(=O)[C@H](CCCNC(=N)N)NC(=O)[C@H](CC(C)C)NC(=O)[C@H](CCCCN)NC(=O)[C@@H](NC(=O)CC(Cc1ccc(O)cc1)NC(=O)CC(CC(N)=O)NC(=O)[C@H](CCC(=O)O)NC(=O)[C@@H](NC(=O)[C@H](Cc1ccccc1)NC(=O)[C@H]1CCC[C@@H]1NC(=O)[C@H](C)NC(=O)[C@H](CC(=O)O)NC(=O)[C@H]1CCC[C@@H]1NC(=O)[C@@H](N)Cc1cnc[nH]1)[C@@H](C)O)[C@@H](C)O)C(=O)NC(CCCCN)CC(=O)N[C@@H](CCCCN)C(=O)NCC(=O)NCCC(=O)N[C@H](C(=O)O)[C@@H](C)O` (stereo partly drawn) (H-H[X1]DA[X1]FTE[ξβ3hN][ξβ3hY]TKLRKQLAA[X2]KY[X1]NDL[ξβ3hK]KG[βAla]T-OH), for which the EC50 came out at 95.6 nM in assay [1] and 932 nM in assay [2].

Take `CC[C@H](C)[C@H](NC(=O)[C@H](C)NC(=O)[C@H](CC(N)=O)NC(=O)CC(CC(C)C)NC(=O)[C@H](Cc1ccc(O)cc1)NC(=O)[C@H](CCCCN)NC(=O)[C@H](CCCCN)NC(=O)CC(NC(=O)[C@H](C)NC(=O)[C@H](CC(C)C)NC(=O)[C@H](CCC(N)=O)NC(=O)CC(CCCCN)NC(=O)[C@H](CCCNC(=N)N)NC(=O)[C@H](CC(C)C)NC(=O)[C@H](CCCNC(=N)N)NC(=O)CC(NC(=O)[C@H](Cc1ccc(O)cc1)NC(=O)[C@H](CC(N)=O)NC(=O)[C@H](CC(=O)O)NC(=O)[C@@H](NC(=O)[C@H](Cc1ccccc1)NC(=O)CC(NC(=O)[C@H](C)NC(=O)[C@H](CC(=O)O)NC(=O)[C@H]1CCC[C@@H]1NC(=O)[C@@H](N)Cc1cnc[nH]1)C(C)C)[C@@H](C)O)C(C)O)C(C)C)C(=O)NC(CC(=O)N[C@@H](CC(N)=O)C(=O)O)CC(C)C` (stereo partly drawn) (H-H[X1]DA[ξβ3hV]FTDNY[ξβ3hT]RLR[ξβ3hK]QLA[ξβ3hV]KKY[ξβ3hL]NAI[ξβ3hL]N-OH): the EC50 in assay [1] came to 262 nM; in assay [2], 4.43 nM.
